Data taken from patent publication EP3262036B1, “THERAPEUTIC PYRIDAZINE COMPOUNDS AND USES THEREOF” (priority 2015, dated 2016).

Legend:
Assay in all cases: biochemical
[1] = molecular target: BRM (Isoform 2) Bromodomain (Homo sapiens, UniProt P51531)
Text: IC50 measurements for inhibitors using BRM SM TR-FRET Binding Assay

[2] = molecular target: Polybromodomain-1 BromoDomain-5 (PB1-BD5) (Homo sapiens, UniProt Q86U86)
Text: IC50 measurements for inhibitors using Polybromodomain-1 BromoDomain-5 (PB1-BD5) SM TR-FRET Binding Assay

BRG1 = BRG1 (Homo sapiens, UniProt P51532); assay type: binding; settings: BRG1 HTRF IC50 (µM)
Sequence of BRG1 (P51532 1448-1575): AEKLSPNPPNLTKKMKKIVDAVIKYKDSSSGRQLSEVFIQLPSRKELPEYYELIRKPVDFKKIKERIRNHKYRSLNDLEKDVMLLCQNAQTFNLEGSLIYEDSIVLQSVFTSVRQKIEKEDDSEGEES
Text: IC50 measurements for inhibitors using BRG1 TR-FRET Binding Assay

Sequence of Polybromodomain-1 BromoDomain-5 (PB1-BD5) (Q86U86 645-766): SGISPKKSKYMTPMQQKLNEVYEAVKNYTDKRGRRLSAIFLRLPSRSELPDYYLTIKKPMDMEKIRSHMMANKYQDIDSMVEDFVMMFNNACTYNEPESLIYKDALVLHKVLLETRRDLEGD
Sequence of BRM (Isoform 2) Bromodomain (P51531 1377-1486 isoform P51531-2): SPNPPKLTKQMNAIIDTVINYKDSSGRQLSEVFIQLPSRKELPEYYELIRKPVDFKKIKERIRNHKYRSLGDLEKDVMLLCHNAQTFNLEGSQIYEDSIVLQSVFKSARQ

| SMILES | IC50 [1] | IC50 [2] | IC50 (BRG1) |
| --- | --- | --- | --- |
| CC(c1ccccc1)n1cc(-c2cc(-c3ccccc3O)nnc2N)cn1 (stereo not shown) [Example 188, 2-(6-amino-5-(1-(1-phenylethyl)-1H-pyrazol-4-yl)pyridazin-3-yl)phenol] | 5.7 nM | 2.5 nM |  |
| CS(=O)(=O)N1CCN(c2cc(-c3ccccc3O)nnc2N)CC1Cc1ccccc1 (stereo not shown) [Example 119, 2-(6-amino-5-(3-benzyl-4-(methylsulfonyl)piperazin-1-yl)pyridazin-3-yl)phenol] |  | 23.3 nM | 0.0385 µM |
| Nc1nnc(-c2ccccc2O)cc1OC1CCN(Cc2ccccc2)C1 (stereo not shown) [Example 180, 2-(6-amino-5-((1-benzylpyrrolidin-3-yl)oxy)pyridazin-3-yl)phenol] | 59.7 nM | 43.9 nM | 0.0432 µM |
| Nc1nnc(-c2ccccc2O)cc1C1CCN(Cc2ccccc2)CC1 [Example 218, 2-(6-amino-5-(1-benzylpiperidin-4-yl)pyridazin-3-yl)phenol] |  | 44.8 nM | 0.0553 µM |
| CN(C)Cc1ccc(-c2cc(-c3ccccc3O)nnc2N)cc1 [Example 189, 2-(6-amino-5-(4-((dimethylamino)methyl)phenyl)pyridazin-3-yl)phenol] | 49.3 nM | 28.8 nM | 0.0222 µM |
| Nc1nnc(-c2ccccc2O)cc1N1CC2CCC(C1)N2Cc1ccccc1 [Example 16, 2-(6-amino-5-(8-benzyl-3,8-diazabicyclo[3.2.1]octan-3-yl)pyridazin-3-yl)phenol] | 79 nM | 51.3 nM | 0.0563 µM |
| Nc1nnc(-c2ccccc2O)cc1N1CCN(Cc2cccnc2)CC1 [Example 3, 2-(6-amino-5-(4-(pyridin-3-ylmethyl)piperazin-1-yl)pyridazin-3-yl)phenol] |  | 25.2 nM | 0.0373 µM |
| CN(C)CCOc1cc(-c2ccccc2O)nnc1N [Example 173, 2-(6-amino-5-(2-(dimethylamino)ethoxy)pyridazin-3-yl)phenol] | 276 nM | 257 nM | 0.263 µM |
| Nc1nnc(-c2ccccc2O)cc1C1CCN(S(=O)(=O)c2ccccc2)C1 (stereo not shown) [Example 217, 2-(6-amino-5-(1-(phenylsulfonyl)pyrrolidin-3-yl)pyridazin-3-yl)phenol] | 466 nM | 268 nM | 0.412 µM |
| CC(COc1cc(-c2ccccc2O)nnc1N)c1ccccc1 (stereo not shown) [Example 178, 2-(6-amino-5-(2-phenylpropoxy)pyridazin-3-yl)phenol] | 7.2 nM | 5.3 nM | 0.0122 µM |
| CN(C)CC1CCN(c2cc(-c3ccccc3O)nnc2N)CC1 [Example 5, 2-(6-amino-5-(4-((dimethylamino)methyl)piperidin-1-yl)pyridazin-3-yl)phenol] | 22.5 nM |  | 0.0395 µM |
| CC(=O)N1CCN(c2cc(-c3ccccc3O)nnc2N)CC1 [Example 4, 1-(4-(3-amino-6-(2-hydroxyphenyl)pyridazin-4-yl)piperazin-1-yl)ethan-1-one] | 71.7 nM | 24.6 nM | 0.0659 µM |
| CC(Oc1cc(-c2ccccc2O)nnc1N)C1CCOCC1 (stereo not shown) [Example 168, 2-(6-amino-5-(1-(tetrahydro-2H-pyran-4-yl)ethoxy)pyridazin-3-yl)phenol] | 197 nM | 113 nM | 0.169 µM |
| Cn1cc(-c2cc(-c3ccccc3O)nnc2N)cn1 [Example 187, 2-(6-amino-5-(1-methyl-1H-pyrazol-4-yl)pyridazin-3-yl)phenol] | 10 nM | 3.7 nM |  |
| Nc1nnc(-c2ccccc2O)cc1N1CC(Oc2ccccc2)C1 [Example 57, 2-(6-amino-5-(3-phenoxyazetidin-1-yl)pyridazin-3-yl)phenol] | 35.6 nM |  | 0.0177 µM |
| CC1CN(c2cc(-c3ccccc3O)nnc2N)CC(C)O1 (racemic) [Example 33, 2-(6-amino-5-(2,6-dimethylmorpholino)pyridazin-3-yl)phenol] | 69.6 nM | 24 nM |  |
| Nc1nnc(-c2ccccc2O)cc1N1C[C@H]2CN(Cc3ccccc3)C[C@H]2C1 [Example 9, 2-(6-amino-5-((3aR,6aS)-5-benzylhexahydropyrrolo[3,4-c]pyrrol-2(1H)-yl)pyridazin-3-yl)phenol] | 47.6 nM | 18.2 nM | 0.0615 µM |
| C[C@H](Oc1cc(-c2ccccc2O)nnc1N)c1ccccc1 [Example 170, (S)-2-(6-amino-5-(1-phenylethoxy)pyridazin-3-yl)phenol] | 14.9 nM | 9.6 nM |  |
| Nc1nnc(-c2ccccc2O)cc1OCCc1ccccc1 [Example 174, 2-(6-amino-5-phenethoxypyridazin-3-yl)phenol] | 19 nM | 8.8 nM | 0.0148 µM |
| C[C@H]1CN(c2cc(-c3ccccc3O)nnc2N)CCN1C(=O)c1cccnc1 [Example 155] |  |  | 0.166 µM |
| CN(C)CCCOc1cc(-c2ccccc2O)nnc1N [Example 175, 2-(6-amino-5-(3-(dimethylamino)propoxy)pyridazin-3-yl)phenol] |  |  | 0.117 µM |
| CC(C)(C)OC(=O)N1CCC(c2cc(-c3ccccc3O)nnc2N)C1 (stereo not shown) [Example 212, tert-butyl 3-(3-amino-6-(2-hydroxyphenyl)pyridazin-4-yl)pyrrolidine-1-carboxylate] |  |  | 0.0694 µM |

| SMILES | IC50 [1] | IC50 [2] | IC50 (BRG1) |
| --- | --- | --- | --- |
| Nc1nnc(-c2ccccc2O)cc1OC1CCCN(C(=O)c2ccccc2)C1 (stereo not shown) [Example 185, (3-((3-amino-6-(2-hydroxyphenyl)pyridazin-4-yl)oxy)piperidin-1-yl)(phenyl)methanone] |  |  | 0.641 µM |
| Nc1nnc(-c2ccccc2O)cc1N1CCNC(Cc2ccccc2)C1 (stereo not shown) [Example 49, 2-(6-amino-5-(3-benzylpiperazin-1-yl)pyridazin-3-yl)phenol] |  |  | 0.0848 µM |
| Nc1nnc(-c2ccccc2O)cc1C1CCCC1 [Example 210, 2-(6-amino-5-cyclopentylpyridazin-3-yl)phenol] | 25 nM | 14.9 nM | 0.0239 µM |
| COC1(Cc2ccccc2)CCN(c2cc(-c3ccccc3O)nnc2N)C1 (stereo not shown) [Example 40, 2-(6-amino-5-(3-benzyl-3-methoxypyrrolidin-1-yl)pyridazin-3-yl)phenol] |  |  | 0.0794 µM |
| CC(c1ccccc1)N1CCN(c2cc(-c3ccccc3O)nnc2N)CC1 (stereo not shown) [Example 15, 2-(6-amino-5-(4-(1-phenylethyl)piperazin-1 - yl)pyridazin-3-yl)phenol] | 36.1 nM | 24.5 nM |  |
| CC(=O)N1C2CCC1CN(c1cc(-c3ccccc3O)nnc1N)C2 [Example 66, 1-(3-(3-amino-6-(2-hydroxyphenyl)pyridazin-4-yl)-3,8-diazabicyclo[3.2.1]octan-8-yl)ethan-1-one] |  |  | 0.0713 µM |
| Cc1cc(CN2CCN(c3cc(-c4ccccc4O)nnc3N)CC2)no1 [Example 101, 2-[6-amino-5-[4-[(5-methylisoxazol-3-yl)methyl]piperazin-1-yl]pyridazin-3-yl]phenol] |  |  | 0.0653 µM |
| Nc1nnc(-c2ccccc2O)cc1N1CCOCC1 [Example 45, 2-(6-amino-5-morpholinopyridazin-3-yl)phenol] | 71.5 nM | 20.9 nM | 0.101 µM |
| CC1CN(c2cc(-c3ccccc3O)nnc2N)CCN1C(=O)C(C)(C)O (stereo not shown) [Example 134, 1-(4-(3-amino-6-(2-hydroxyphenyl)pyridazin-4-yl)-2-methylpiperazin-1-yl)-2-hydroxy-2-methylpropan-1-one] |  |  | 0.0349 µM |
| Nc1nnc(-c2ccccc2O)cc1O[C@H]1CCCC[C@@H]1c1ccccc1 [Example 165, 2-(6-amino-5-(((1,2-trans)-2-phenylcyclohexyl)oxy)pyridazin-3-yl)phenol] |  |  | 0.977 µM |
| CC(Cc1ccccc1)Oc1cc(-c2ccccc2O)nnc1N (stereo not shown) [Example 177, 2-(6-amino-5-((1-phenylpropan-2-yl)oxy)pyridazin-3-yl)phenol] | 92.5 nM | 29.2 nM | 0.1 µM |
| Nc1nnc(-c2ccccc2O)cc1N1CCS(=O)(=O)CC1 [Example 46, 4-(3-amino-6-(2-hydroxyphenyl)pyridazin-4-yl)thiomorpholine 1,1-dioxide] |  |  | 0.414 µM |
| C[C@@H]1CN(c2cc(-c3ccccc3O)nnc2N)CCN1C(=O)[C@@H]1CCCO1 [Example 141, ((R)-4-(3-amino-6-(2-hydroxyphenyl)pyridazin-4-yl)-2-methylpiperazin-1-yl)((S)-tetrahydrofuran-2-yl)methanone] |  |  | 0.033 µM |
| Nc1nnc(-c2cc(F)cc(F)c2O)cc1-c1ccccc1 [Example 232, 2-(6-amino-5-phenylpyridazin-3-yl)-4,6-difluorophenol] |  |  | 0.176 µM |
| CN(C)CC1CCCN(c2cc(-c3ccccc3O)nnc2N)C1 (stereo not shown) [Example 21, 2-(6-amino-5-(3-((dimethylamino)methyl)piperidin-1-yl)pyridazin-3-yl)phenol] |  |  | 0.116 µM |
| Nc1nnc(-c2ccccc2O)cc1N1CCN(Cc2ncco2)CC1 [Example 97, 2-[6-amino-5-[4-(oxazol-2-ylmethyl)piperazin-1-yl]pyridazin-3-yl]phenol] |  |  | 0.0714 µM |
| C[C@H](C(=O)N(C)C)n1cc(-c2cc(-c3ccccc3O)nnc2N)cn1 [Example 195, 2-(4-(3-Amino-6-(2-hvdroxyphenyl)pyridazin-4-vl)-1H-pvrazol-1-yl)-N,N-dimethylpropanamide] |  |  | 0.0217 µM |
| Nc1nnc(-c2ccccc2O)cc1N1CCCC(O)(c2ccccc2)C1 (stereo not shown) [Example 59, 1-(3-amino-6-(2-hydroxyphenyl)pyridazin-4-yl)-3-phenylpiperidin-3-ol] |  |  | 0.0158 µM |
| CS(=O)(=O)N1C2CCC1CN(c1cc(-c3ccccc3O)nnc1N)C2 [Example 67, 2-(6-amino-5-(8-(methylsulfonyl)-3,8-diazabicyclo[3.2.1]octan-3-yl)pyridazin-3-yl)phenol] |  |  | 0.0294 µM |
| Nc1ccc(-c2ccccc2O)nn1 [Example 203, 2-(6-aminopyridazin-3-yl)phenol] |  |  | 0.335 µM |
| NC(=O)C1CCN(c2cc(-c3ccccc3O)nnc2N)CC1 [Example 73, 1-(3-amino-6-(2-hydroxyphenyl)pyridazin-4-yl)piperidine-4-carboxamide] |  |  | 0.0824 µM |
